Reference: PubChem BioAssay (NCI)
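In this assay, cells in 96-well plates receive the compound at five concentrations for 48 hours. Endpoints are linearly interpolated between the surrounding concentrations. At the GI50, growth is halved. TGI denotes the concentration required for complete inhibition of growth.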

Experiments:
Experiment in all cases: NCI-60 cell line screen, 48 h
A549 NSCLC = system: A549 NSCLC
ACHN renal = system: ACHN renal
PC-3 prostate = system: PC-3 prostate
SF-539 CNS = system: SF-539 CNS
LOX IMVI melanoma = system: LOX IMVI melanoma
OVCAR-4 ovarian = system: OVCAR-4 ovarian
COLO 205 colon = system: COLO 205 colon
HCT-116 colon = system: HCT-116 colon
UACC-257 melanoma = system: UACC-257 melanoma
HCC-2998 colon = system: HCC-2998 colon
RXF 393 renal = system: RXF 393 renal
HOP-62 NSCLC = system: HOP-62 NSCLC
HOP-92 NSCLC = system: HOP-92 NSCLC
CCRF-CEM leukemia = system: CCRF-CEM leukemia
NCI-H522 lung = system: NCI-H522 lung
SK-MEL-5 melanoma = system: SK-MEL-5 melanoma
786-0 renal = system: 786-0 renal
SNB-19 CNS = system: SNB-19 CNS
NCI-H226 lung = system: NCI-H226 lung
K-562 leukemia = system: K-562 leukemia
UO-31 renal = system: UO-31 renal
A498 renal = system: A498 renal
HL-60(TB) leukemia = system: HL-60(TB) leukemia
IGROV1 ovarian = system: IGROV1 ovarian
MCF7 breast = system: MCF7 breast
T-47D breast = system: T-47D breast
EKVX NSCLC = system: EKVX NSCLC
MDA-MB-468 breast = system: MDA-MB-468 breast
SW-620 colon = system: SW-620 colon
SK-OV-3 ovarian = system: SK-OV-3 ovarian
HT29 colon = system: HT29 colon
NCI-H460 lung = system: NCI-H460 lung
MALME-3M melanoma = system: MALME-3M melanoma
M14 melanoma = system: M14 melanoma
NCI/ADR-RES ovarian = system: NCI/ADR-RES ovarian
RPMI-8226 leukemia = system: RPMI-8226 leukemia
SR leukemia = system: SR leukemia
CAKI-1 renal = system: CAKI-1 renal
DU-145 prostate = system: DU-145 prostate
UACC-62 melanoma = system: UACC-62 melanoma
MDA-MB-435 = system: MDA-MB-435
TK-10 renal = system: TK-10 renal
OVCAR-8 ovarian = system: OVCAR-8 ovarian
SN12C renal = system: SN12C renal
OVCAR-5 ovarian = system: OVCAR-5 ovarian
HS 578T breast = system: HS 578T breast
MDA-MB-231 breast = system: MDA-MB-231 breast
HCT-15 colon = system: HCT-15 colon
U251 CNS = system: U251 CNS
SK-MEL-2 melanoma = system: SK-MEL-2 melanoma
KM12 colon = system: KM12 colon
SF-295 CNS = system: SF-295 CNS
BT-549 breast = system: BT-549 breast
NCI-H23 lung = system: NCI-H23 lung
SNB-75 CNS = system: SNB-75 CNS
SF-268 CNS = system: SF-268 CNS
SK-MEL-28 melanoma = system: SK-MEL-28 melanoma
MOLT-4 leukemia = system: MOLT-4 leukemia

With C=C(c1ccc(OC)c(N)c1)c1cc(C)nc2ccccc12 the GI50 (A549 NSCLC) was < 0.01 µM, the TGI (A549 NSCLC) was > 100 µM and the GI50 (ACHN renal) was < 0.01 µM. The TGI (ACHN renal) was 61.9 µM, the GI50 (PC-3 prostate) was < 0.01 µM and the TGI (PC-3 prostate) was > 100 µM. For the same compound, the GI50 (SF-539 CNS) was < 0.01 µM, the TGI (SF-539 CNS) was < 0.01 µM and the GI50 (LOX IMVI melanoma) was < 0.01 µM. The TGI (LOX IMVI melanoma) was 27.4 µM, the GI50 (OVCAR-4 ovarian) was 7.41 µM and the TGI (OVCAR-4 ovarian) was > 100 µM. For the same compound, the GI50 (COLO 205 colon) was < 0.01 µM, the TGI (COLO 205 colon) was < 0.01 µM and the GI50 (HCT-116 colon) was < 0.01 µM. The TGI (HCT-116 colon) was > 100 µM, the GI50 (UACC-257 melanoma) was 3.98 µM and the TGI (UACC-257 melanoma) was 75 µM. The GI50 (HCC-2998 colon) was < 0.01 µM, the TGI (HCC-2998 colon) was 0.466 µM and the GI50 (RXF 393 renal) was < 0.01 µM. The TGI (RXF 393 renal) was 79 µM, the GI50 (HOP-62 NSCLC) was < 0.01 µM and the TGI (HOP-62 NSCLC) was > 100 µM. The GI50 (HOP-92 NSCLC) was 0.18 µM, the TGI (HOP-92 NSCLC) was 43 µM and the GI50 (CCRF-CEM leukemia) was < 0.01 µM. For the same compound, the GI50 (NCI-H522 lung) was < 0.01 µM, the TGI (NCI-H522 lung) was < 0.01 µM and the GI50 (SK-MEL-5 melanoma) was < 0.01 µM. The TGI (SK-MEL-5 melanoma) was < 0.01 µM, the GI50 (786-0 renal) was < 0.01 µM and the TGI (786-0 renal) was > 100 µM. The GI50 (SNB-19 CNS) was < 0.01 µM, the TGI (SNB-19 CNS) was > 100 µM and the GI50 (NCI-H226 lung) was < 0.0115 µM. For the same compound, the TGI (NCI-H226 lung) was > 100 µM, the GI50 (K-562 leukemia) was < 0.01 µM and the TGI (K-562 leukemia) was > 93 µM. For the same compound, the GI50 (UO-31 renal) was < 0.01 µM, the TGI (UO-31 renal) was 64.6 µM and the GI50 (A498 renal) was 36.8 µM. For the same compound, the TGI (A498 renal) was > 100 µM, the GI50 (HL-60(TB) leukemia) was < 0.01 µM and the TGI (HL-60(TB) leukemia) was < 0.01 µM. The GI50 (IGROV1 ovarian) was < 0.01 µM, the TGI (IGROV1 ovarian) was > 100 µM and the GI50 (MCF7 breast) was < 0.01 µM. The TGI (MCF7 breast) was > 37.1 µM, the GI50 (T-47D breast) was 12.6 µM and the TGI (T-47D breast) was > 100 µM. For the same compound, the GI50 (EKVX NSCLC) was < 0.01 µM, the TGI (EKVX NSCLC) was > 51.6 µM and the GI50 (MDA-MB-468 breast) was < 0.01 µM. The TGI (MDA-MB-468 breast) was 76.3 µM, the GI50 (SW-620 colon) was < 0.01 µM and the TGI (SW-620 colon) was > 100 µM. The GI50 (SK-OV-3 ovarian) was < 0.01 µM, the GI50 (HT29 colon) was < 0.01 µM and the TGI (HT29 colon) was < 0.01 µM. The GI50 (NCI-H460 lung) was < 0.01 µM, the TGI (NCI-H460 lung) was > 32 µM and the GI50 (MALME-3M melanoma) was < 0.01 µM. The TGI (MALME-3M melanoma) was 31.6 µM, the GI50 (M14 melanoma) was < 0.01 µM and the TGI (M14 melanoma) was 15.2 µM. For the same compound, the GI50 (NCI/ADR-RES ovarian) was < 0.01 µM, the TGI (NCI/ADR-RES ovarian) was < 0.01 µM and the GI50 (RPMI-8226 leukemia) was < 0.01 µM. For the same compound, the TGI (RPMI-8226 leukemia) was 21.3 µM, the GI50 (SR leukemia) was < 0.01 µM and the TGI (SR leukemia) was 34.6 µM. For the same compound, the GI50 (CAKI-1 renal) was < 0.01 µM, the TGI (CAKI-1 renal) was > 96.2 µM and the GI50 (DU-145 prostate) was < 0.01 µM. For the same compound, the TGI (DU-145 prostate) was > 100 µM, the GI50 (UACC-62 melanoma) was < 0.01 µM and the TGI (UACC-62 melanoma) was 22.4 µM. The GI50 (MDA-MB-435) was < 0.01 µM, the TGI (MDA-MB-435) was 0.118 µM and the GI50 (TK-10 renal) was 18.7 µM. The TGI (TK-10 renal) was > 100 µM, the GI50 (OVCAR-8 ovarian) was < 0.01 µM and the GI50 (SN12C renal) was < 0.01 µM. For the same compound, the TGI (SN12C renal) was > 44.9 µM, the GI50 (OVCAR-5 ovarian) was < 0.01 µM and the TGI (OVCAR-5 ovarian) was > 100 µM. For the same compound, the GI50 (HS 578T breast) was < 0.01 µM, the TGI (HS 578T breast) was > 100 µM and the GI50 (MDA-MB-231 breast) was < 0.01 µM. The TGI (MDA-MB-231 breast) was < 0.01 µM, the GI50 (HCT-15 colon) was < 0.01 µM and the GI50 (U251 CNS) was < 0.01 µM. For the same compound, the TGI (U251 CNS) was > 100 µM, the GI50 (SK-MEL-2 melanoma) was < 0.01 µM and the TGI (SK-MEL-2 melanoma) was < 0.01 µM. For the same compound, the GI50 (KM12 colon) was < 0.01 µM, the TGI (KM12 colon) was 11.5 µM and the GI50 (SF-295 CNS) was < 0.01 µM. The GI50 (BT-549 breast) was < 0.01 µM, the GI50 (NCI-H23 lung) was < 0.01 µM and the TGI (NCI-H23 lung) was 36.1 µM. For the same compound, the GI50 (SNB-75 CNS) was < 0.01 µM, the TGI (SNB-75 CNS) was 83.7 µM and the GI50 (SF-268 CNS) was < 0.01 µM. For the same compound, the TGI (SF-268 CNS) was 37.4 µM, the GI50 (SK-MEL-28 melanoma) was < 0.01 µM and the TGI (SK-MEL-28 melanoma) was 98.2 µM. The GI50 (MOLT-4 leukemia) was < 0.01 µM and the TGI (MOLT-4 leukemia) was 26.6 µM.
